In experiment [1] the test system is human peripheral blood monocytes. Briefly: Activation of monocytes in vitro measured by production of Interleukin-1-beta (ELISA). Particulars: 24 Hours. Format: cell-based. As to the method: (§1) Human peripheral blood monocytes were isolated by density gradient centrifugation as noted in Example 13. The cell number was adjusted to 5×10^5 cells per ml in RPM 1640 media containing 5% human AB negative serum. One ml containing 5×10^5 cells were placed in individual wells of 24-well Plastek tissue culture plate. Various drugs in a volume of 0.5 ml were added at time zero. The compounds were also formulated in liposomes as described in Example 10, and added in a volume of 0.5 ml to individual wells of a 24-well Plastek tissue culture plate. The cells were incubated at 37° C. in a 5% CO2 atmosphere. Aliquots (0.1 ml) of the supernatant were removed at 24 hours and frozen at -20° C. These samples were subsequently assayed for TNF as described in Example 33 and Interleukin-1-beta (IL-1β) using a commercially available ELISA kit from Cistron (Pine Brook, N.J.).

For experiment [2] the test system is unchanged. The experiment is described as follows: Activation of monocytes in vitro measured by production of tumor necrosis factor (ELISA). Format: cell-based. Particulars: 24 Hours. As to the method:
Human peripheral blood monocytes were isolated by density gradient centrifugation as noted in Example 13. The cell number was adjusted to 5×10^5 cells per ml in RPM 1640 media containing 5% human AB negative serum. One ml containing 5×10^5 cells were placed in individual wells of a 24-well Plastek tissue culture plate. Various drugs in a volume of 0.5 ml were added at time zero. The cells were incubated at 37° C. in a 5% CO2 atmosphere. Aliquots (0.1 ml) of the supernatant were removed at 24 hours and frozen at -80° C. These samples were subsequently assayed for tumor necrosis factor (TNF) activity using a commercially available ELISA Assay from T-Cell Sciences (Cambridge, Mass.).
Human peripheral blood monocytes were isolated by density gradient centrifugation as described in Example 13. The cells were plated in 24-well microliter plates as described in Example 33. The compounds Were prepared in liposomes as described in Example 10, and assayed for TNF production, as described in Example 33. The results are set forth in Table 5, and show significant levels of TNF compared to controls.
as §1

We go through 1 compound from patent US5416070A, “Composition for macrophage activation” (ImmunoTherapeutics, Inc., priority 1990, dated 1995).

Take `CCCCCCCCCCCCCCCC(=O)OCC(COC(=O)C(C)NC(=O)CCC(NC(=O)C(NC(=O)C(C)OC1C(NC(C)=O)C(O)OC(CO)C1OC1OC(CO)C(O)C(O)C1NC(C)=O)C(C)C)C(N)=O)OC(=O)CCCCCCCCCCCCCCC` [IIF, GlcNAcMurNAc-F-Val-D-isoGln-F-Ala-DpG]: the “IL-1-beta (pg/ml) at given Concentration of Compound” value stood at 220 pg/mL in experiment [1] (Table 8, Experiment 1, 0.01 μg/ml); 212 pg/mL in experiment [1] (Table 8, Experiment 1, 0.1 μg/ml); 260 pg/mL in experiment [1] (Table 8, Experiment 1, 1.0 μg/ml); 260 pg/mL in experiment [1] (Table 8, Experiment 1, 10.0 μg/ml). Moreover, the “TNF (pg/ml) at given Concentration of Compound” value in experiment [2] (Table 7, Experiment 1, 0.01 μg/ml) worked out at 510 pg/mL; in experiment [2] (Table 7, Experiment 1, 0.1 μg/ml), 440 pg/mL; in experiment [2] (Table 7, Experiment 1, 1.0 μg/ml), 480 pg/mL; in experiment [2] (Table 7, Experiment 1, 10.0 μg/ml), 400 pg/mL.
